Data from patent US10577395B2 (priority 2014, dated 2020).
Values after ≈ are worked out from the molar mass of the structure shown. Like-named read-outs stand apart in the source and are kept apart here.

Experiments:
[1] = system: VanA VRE; assay: Antimicrobial assay, MIC for VanA VRE; format: cell-based, E. faecalis and E. faecium; conditions: for MIC: Enterococcus, VRE, read-out: MIC against VanA VRE; for improvement in activity against VanA VRE on introduction of the (4-chlorobiphenyl)methyl group: relative to the analogue without CBP group
Experimental: (§1) Assays were carried out following the methods of Clinical and Laboratory Standards Institute; Methods for Dilution Antimicrobial Susceptibility Tests for Bacteria That Grow Aerobically; Approved Standard, […].; CLSI document M07-A8; Clinical and Laboratory Standards Institute: Wayne, Pa., 2009.
(§2) This diluted bacterial stock solution was then inoculated into a well of a V-shaped 96-well glass coated microtiter plate, supplemented with serial diluted aliquots of the antibiotic solution DMSO (4 μL), to achieve a total assay volume of 0.1 mL. The plate was then incubated at 37° C. for 18 hours, after which minimal inhibitory concentrations (MICs) were determined by monitoring the cell growth (observed as a pellet) in the wells. The lowest concentration of antibiotic (in μg/mL) capable of eliminating the cell growth in the wells is reported as the MIC.

[2] = system: vancomycin-sensitive strain of E. faecium; conditions: Kahne et al., Chem. Rev. 2005; cited from earlier work
[3] = system: VSSA and MRSA; assay: Antimicrobial assay, MIC for VSSA and MRSA together; format: cell-based, S. aureus
Experimental: as §1, §2

[4] = system: methicillin and oxacillin-resistant Staphylococcus aureus subsp. aureus (MRSA strain ATCC 43300); assay: Antimicrobial assay, MIC, MRSA; format: cell-based; conditions: for MIC: Staphylococcus aureus
Experimental: as §1, §2

[5] = relative to D-Ala-D-Ala; cited from earlier work
[6] = system: vancomycin-resistant Enterococcus faecalis (VanA VRE, BM4166); assay: microbe, parasite or virus in culture; format: cell-based; conditions: for MIC: Enterococcus faecalis, VRE
Experimental: as §1, §2

[7] = system: vancomycin-resistant Enterococcus faecalis (VanB VRE, strain ATCC 51299); assay: microbe, parasite or virus in culture; format: cell-based; conditions: for MIC: Enterococcus faecalis
Experimental: as §1, §2

[8] = system: vancomycin-sensitive Staphylococcus aureus (VSSA strain ATCC 25923); assay: Antimicrobial assay, MIC, vancomycin-sensitive S. aureus; format: cell-based; conditions: for MIC: Staphylococcus aureus
Experimental: as §1, §2

[9] = system: Enterococcus faecium (VanA VRE, ATCC BAA-2317); assay: Antimicrobial assay, MIC, VanA E. faecium; format: cell-based; conditions: for MIC: Enterococcus faecium
Experimental: as §1, §2

[10] = system: vancomycin-resistant strain of E. faecium; assay: MIC reported by Kahne et al., vancomycin-resistant E. faecium; format: cell-based; conditions: Kahne data
[11] = system: vancomycin-resistant strain of E. faecium; conditions: Kahne et al., Chem. Rev. 2005; cited from earlier work
[12] = system: panel of Gram-positive bacteria (VSSA, MRSA, VanA and VanB VRE); assay: Antimicrobial assay, MIC across the bacterial panel; format: cell-based, S. aureus, E. faecalis, E. faecium
Experimental: as §1, §2

[13] = read-out: MIC, MRSA S. aureus, serum concentration 10%
[14] = read-out: MIC, MRSA S. aureus, serum concentration 25%
[15] = read-out: MIC, MRSA S. aureus, serum concentration 100%
[16] = read-out: MIC, Van A E. faecalis, serum concentration 10%
[17] = read-out: MIC, Van A E. faecalis, serum concentration 25%
[18] = read-out: MIC, Van A E. faecalis, serum concentration 100%
[19] = read-out: MIC, VanA E. faecalis
[20] = read-out: MIC, Van B E. faecalis, serum concentration 10%
[21] = read-out: MIC, Van B E. faecalis, serum concentration 25%
[22] = read-out: MIC, Van B E. faecalis, serum concentration 100%
[23] = read-out: MIC, VanB E. faecalis
[24] = read-out: MIC, Van A E. faecium, serum concentration 10%
[25] = read-out: MIC, Van A E. faecium, serum concentration 25%
[26] = read-out: MIC, Van A E. faecium, serum concentration 100%

CN[C@H](CC(C)C)C(=O)N[C@H]1C(=O)N[C@@H](CC(N)=O)C(=O)N[C@H]2C(=O)N[C@H]3C(=O)N[C@H](C(=O)N[C@H](C(=O)O)c4cc(O)cc(O)c4-c4cc3ccc4O)[C@H](O)c3ccc(c(Cl)c3)Oc3cc2cc(c3O[C@@H]2O[C@H](CO)[C@@H](O)[C@H](O)[C@H]2O[C@H]2C[C@](C)(N)[C@H](O)[C@H](C)O2)Oc2ccc(cc2Cl)[C@H]1O [Compound 1, vancomycin, reference compound]
MIC against VanA VRE ([1]; stated for VanA VRE): 250 mg/L (≈ 173 µM) | MIC, vancomycin-sensitive strain of E. faecium [2]: 1 mg/L | MIC against VSSA and MRSA ([3]; one value stated for both strains): 0.5 mg/L (≈ 0.345 µM) | MIC, MRSA S. aureus ([4]; ATCC 43300): 0.5 mg/L (≈ 0.345 µM) | MIC, MRSA S. aureus, serum concentration 10% ([4]; ATCC 43300, 10%): 0.5 mg/L (≈ 0.345 µM) | MIC, MRSA S. aureus, serum concentration 25% ([4]; ATCC 43300, 25%): 0.5 mg/L (≈ 0.345 µM) | MIC, MRSA S. aureus, serum concentration 100% ([4]; ATCC 43300, 100%): 1 mg/L (≈ 0.69 µM) | reduction of binding affinity for the altered ligand D-Ala-D-Lac [5]: 1000 fold | MIC, VanA E. faecalis ([6]; BM 4166): 250 mg/L (≈ 173 µM) | MIC, Van A E. faecalis, serum concentration 10% ([6]; BM 4166, 10%): 250 mg/L (≈ 173 µM) | MIC, Van A E. faecalis, serum concentration 25% ([6]; BM 4166, 25%): 250 mg/L (≈ 173 µM) | MIC, Van A E. faecalis, serum concentration 100% ([6]; BM 4166, 100%): 500 mg/L (≈ 345 µM) | MIC, VanB E. faecalis ([7]; ATCC 51299): 8 mg/L (≈ 5.52 µM) | MIC, Van B E. faecalis, serum concentration 10% ([7]; ATCC 51299, 10%): 4 mg/L (≈ 2.76 µM) | MIC, Van B E. faecalis, serum concentration 25% ([7]; ATCC 51299, 25%): 8 mg/L (≈ 5.52 µM) | MIC, Van B E. faecalis, serum concentration 100% ([7]; ATCC 51299, 100%): 32 mg/L (≈ 22.1 µM) | MIC, sensitive S. aureus ([8]; ATCC 25923): 0.5 mg/L (≈ 0.345 µM) | MIC, sensitive S. aureus, serum concentration 10% ([8]; ATCC 25923, 10%): 0.5 mg/L (≈ 0.345 µM) | MIC, sensitive S. aureus, serum concentration 25% ([8]; ATCC 25923, 25%): 0.5 mg/L (≈ 0.345 µM) | MIC, sensitive S. aureus, serum concentration 100% ([8]; ATCC 25923, 100%): 0.5 mg/L (≈ 0.345 µM) | MIC, VanA E. faecium ([9]; ATCC BAA-2317): 250 mg/L (≈ 173 µM) | MIC, Van A E. faecium, serum concentration 10% ([9]; ATCC BAA-2317, 10%): 250 mg/L (≈ 173 µM) | MIC, Van A E. faecium, serum concentration 25% ([9]; ATCC BAA-2317, 25%): 250 mg/L (≈ 173 µM) | MIC, Van A E. faecium, serum concentration 100% ([9]; ATCC BAA-2317, 100%): 500 mg/L (≈ 345 µM)

CN[C@H](CC(C)C)C(=O)N[C@H]1C(=O)N[C@@H](CC(N)=O)C(=O)N[C@H]2C(=O)NC3C(=O)N[C@H](C(=O)N[C@H](C(=O)O)c4cc(O)cc(O)c4-c4cc3ccc4O)[C@H](O)c3ccc(c(Cl)c3)Oc3cc2cc(c3OC2OC(CO)C(O)[C@H](O)[C@@H]2O[C@H]2CC(C)(NCc3ccc(-c4ccc(Cl)cc4)cc3)[C@H](O)[C@H](C)O2)Oc2ccc(cc2Cl)[C@H]1O (stereo partly drawn) [Compound 4, N-4-(4′-chlorobiphenyl)methyl vancomycin, reference compound]
MIC [1]: 2.5 mg/L (≈ 1.52 µM) | improvement in activity against VanA VRE on introduction of the (4-chlorobiphenyl)methyl group [1]: 100 fold | MIC, vancomycin-sensitive strain of E. faecium [2]: 0.03 mg/L | improvement in activity against VSSA and MRSA on introduction of the (4-chlorobiphenyl)methyl group ([3]; Compound 4 vs Compound 1): 20 fold | MIC ([3]; Staphylococcus aureus, MRSA, read-out: MIC against VSSA and MRSA): 0.03 mg/L (≈ 0.0182 µM) | MIC ([4]; read-out: MIC, MRSA S. aureus): 0.03 mg/L (≈ 0.0182 µM) | MIC [4, 13]: 0.03 mg/L (≈ 0.0182 µM) | MIC [4, 14]: 0.06 mg/L (≈ 0.0364 µM) | MIC [4, 15]: 0.06 mg/L (≈ 0.0364 µM) | MIC [6, 16]: 2.5 mg/L (≈ 1.52 µM) | MIC [6, 17]: 5 mg/L (≈ 3.03 µM) | MIC [6, 18]: 10 mg/L (≈ 6.06 µM) | MIC [6, 19]: 2.5 mg/L (≈ 1.52 µM) | MIC [7, 20]: 0.03 mg/L (≈ 0.0182 µM) | MIC [7, 21]: 0.06 mg/L (≈ 0.0364 µM) | MIC [7, 22]: 0.06 mg/L (≈ 0.0364 µM) | MIC [7, 23]: 0.03 mg/L (≈ 0.0182 µM) | resistant strain less sensitive than the sensitive strain [10]: about 500 times | MIC ([8]; ATCC25923, read-out: MIC, sensitive S. aureus): 0.03 mg/L (≈ 0.0182 µM) | MIC ([8]; ATCC25923, read-out: MIC, sensitive S. aureus, serum concentration 10%): 0.03 mg/L (≈ 0.0182 µM) | MIC ([8]; ATCC25923, read-out: MIC, sensitive S. aureus, serum concentration 25%): 0.03 mg/L (≈ 0.0182 µM) | MIC ([8]; ATCC25923, read-out: MIC, sensitive S. aureus, serum concentration 100%): 0.06 mg/L (≈ 0.0364 µM) | MIC, vancomycin-resistant strain of E. faecium [11]: 16 mg/L | MIC [9, 24]: 2.5 mg/L (≈ 1.52 µM) | MIC [9, 25]: 5 mg/L (≈ 3.03 µM) | MIC [9, 26]: 5 mg/L (≈ 3.03 µM) | MIC ([9]; read-out: MIC, VanA E. faecium): 2.5 mg/L (≈ 1.52 µM)

CN[C@H](CC(C)C)C(=O)N[C@H]1C(=O)N[C@@H](CC(N)=O)C(=O)N[C@H]2C(=N)NC3C(=O)N[C@H](C(=O)N[C@H](C(=O)O)c4cc(O)cc(O)c4-c4cc3ccc4O)[C@H](O)c3ccc(c(Cl)c3)Oc3cc2cc(c3OC2OC(CO)C(O)[C@H](O)[C@@H]2O[C@H]2CC(C)(NCc3ccc(-c4ccc(Cl)cc4)cc3)[C@H](O)[C@H](C)O2)Oc2ccc(cc2Cl)[C@H]1O (stereo partly drawn) [Compound 6, N-4-(4′-chlorobiphenyl)methyl [Ψ[C(═NH)NH]Tpg^4]-vancomycin]
increase in activity against VanA VRE relative to vancomycin (Compound 1) [1]: 50,000 fold | MIC [1]: 0.005 mg/L (≈ 0.00303 µM) | improvement in activity against VanA VRE on introduction of the (4-chlorobiphenyl)methyl group [1]: 100 fold | potency relative to Compound 17, on average across the panel [12]: 15 fold | MIC ([4]; read-out: MIC, MRSA S. aureus): 0.06 mg/L (≈ 0.0364 µM) | MIC [4, 13]: 0.06 mg/L (≈ 0.0364 µM) | MIC [4, 14]: 0.24 mg/L (≈ 0.146 µM) | MIC [4, 15]: 1 mg/L (≈ 0.606 µM) | MIC [6, 16]: 0.005 mg/L (≈ 0.00303 µM) | MIC [6, 17]: 0.06 mg/L (≈ 0.0364 µM) | MIC [6, 18]: 0.5 mg/L (≈ 0.303 µM) | MIC [6, 19]: 0.005 mg/L (≈ 0.00303 µM) | MIC [7, 20]: 0.06 mg/L (≈ 0.0364 µM) | MIC [7, 21]: 0.12 mg/L (≈ 0.0728 µM) | MIC [7, 22]: 1 mg/L (≈ 0.606 µM) | MIC [7, 23]: 0.06 mg/L (≈ 0.0364 µM) | MIC ([8]; ATCC25923, read-out: MIC, sensitive S. aureus, serum concentration 10%, ATCC 25923, 10%): 0.03 mg/L (≈ 0.0182 µM) | MIC ([8]; ATCC25923, read-out: MIC, sensitive S. aureus, serum concentration 100%, ATCC 25923, 100%): 1 mg/L (≈ 0.606 µM) | MIC ([8]; ATCC25923, ATCC 25923, 25%, read-out: MIC, sensitive S. aureus, serum concentration 25%): 0.12 mg/L (≈ 0.0728 µM) | MIC ([8]; ATCC25923, ATCC 25923, read-out: MIC, sensitive S. aureus): 0.03 mg/L (≈ 0.0182 µM) | MIC [9, 24]: 0.005 mg/L (≈ 0.00303 µM) | MIC [9, 25]: 0.06 mg/L (≈ 0.0364 µM) | MIC [9, 26]: 0.5 mg/L (≈ 0.303 µM) | MIC ([9]; read-out: MIC, VanA E. faecium): 0.005 mg/L (≈ 0.00303 µM)
